Patent publication US20240158446A1, “CYCLIC COMPOUND HAVING SELECTIVE INHIBITORY ACTION ON KRAS OVER HRAS AND NRAS” (CHUGAI SEIYAKU KABUSHIKI KAISHA, priority 2021, published 2024)

Assays:
[1] = molecular target: GDP-bound KRAS wild-type protein (Homo sapiens, UniProt P01116); test: Binding to KRAS by surface plasmon resonance (SPR), Single Cycle Kinetics; details: SPR, Single Cycle Kinetics, GDP-bound KRAS wild-type protein; read-out: KRAS KD
[2] = molecular target: GDP-bound NRAS wild-type protein (Homo sapiens, UniProt P01111); test: Binding to NRAS by surface plasmon resonance (SPR), Single Cycle Kinetics; details: SPR, GDP-bound NRAS wild-type protein vs GDP-bound KRAS wild-type protein
[3] = molecular target: GDP-bound HRAS wild-type protein (Homo sapiens, UniProt P01112); test: Binding to HRAS by surface plasmon resonance (SPR), Single Cycle Kinetics; details: SPR, GDP-bound HRAS wild-type protein vs GDP-bound KRAS wild-type protein
GDP-bound HRAS wild-type protein, sequence (P01112 whole entry): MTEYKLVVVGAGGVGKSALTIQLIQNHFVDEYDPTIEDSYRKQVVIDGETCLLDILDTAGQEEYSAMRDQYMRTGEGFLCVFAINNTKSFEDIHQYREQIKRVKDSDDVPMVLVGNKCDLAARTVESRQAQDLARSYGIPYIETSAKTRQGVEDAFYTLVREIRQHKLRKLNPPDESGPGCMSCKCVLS

GDP-bound KRAS wild-type protein, sequence (P01116 whole entry): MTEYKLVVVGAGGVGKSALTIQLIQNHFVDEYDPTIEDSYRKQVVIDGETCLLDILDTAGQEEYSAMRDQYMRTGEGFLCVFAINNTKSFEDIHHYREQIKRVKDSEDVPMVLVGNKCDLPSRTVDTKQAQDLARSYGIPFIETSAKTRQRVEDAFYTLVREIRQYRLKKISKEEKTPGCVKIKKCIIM
GDP-bound NRAS wild-type protein, sequence (P01111 whole entry): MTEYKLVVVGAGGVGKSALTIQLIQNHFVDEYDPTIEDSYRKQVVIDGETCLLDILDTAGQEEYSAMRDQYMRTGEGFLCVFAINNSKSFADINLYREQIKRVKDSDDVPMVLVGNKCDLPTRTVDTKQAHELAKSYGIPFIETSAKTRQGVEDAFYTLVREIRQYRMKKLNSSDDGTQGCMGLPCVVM

Structure (SMILES)	Kd [1]	NRAS/KRAS (ratio of KD value for NRAS to KD value for KRAS) [2]	HRAS/KRAS (ratio of KD value for HRAS to KD value for KRAS) [3]
CC[C@H](C)[C@@H]1NC(=O)[C@H](CC(C)C)N(C)C(=O)C[C@@H](C(=O)N(C)C)N(C)C(=O)[C@H](C2CCCC2)N(C)C(=O)C2(CCC2)NC(=O)[C@@H]2CC(F)(F)CN2C(=O)[C@H](CCc2ccc(C(F)(F)F)c(Cl)c2)NC(=O)CN(C)C(=O)[C@H](Cc2ccc(F)cc2)N2CCCCC[C@@H](C2=O)N(C)C(=O)CN(C)C1=O [PP0973]	85 pM	B (a compound having 3 or more and less than 10 is denoted as B)	B (a compound having 3 or more and less than 10 is denoted as B)
CCO[C@@H]1C[C@H]2C(=O)NC3(CCC3)C(=O)N(C)[C@@H](C3CCCC3)C(=O)N(CCC3CCCC3)[C@H](C(=O)N(C)C)CC(=O)N(C)[C@@H](CC(C)C)C(=O)N[C@@H]([C@@H](C)CC)C(=O)N(C)CC(=O)N(C)[C@H]3CCCCCN(C3=O)[C@@H](Cc3ccc(F)cc3)C(=O)N(C)CC(=O)N[C@@H](CCc3ccc(C(F)(F)F)c(Cl)c3)C(=O)N2C1 [PP0976]	4800 pM	B (a compound having 3 or more and less than 10 is denoted as B)	B (a compound having 3 or more and less than 10 is denoted as B)
CC[C@H](C)[C@@H]1NC(=O)[C@H](CC(C)C)N(C)C(=O)C[C@@H](C(=O)N(C)C)N(CCC2CCCC2)C(=O)[C@H](C2CCCC2)N(C)C(=O)C2(CCC2)NC(=O)[C@@H]2CC(F)(F)CN2C(=O)[C@H](CCc2ccc(C(F)(F)F)c(Cl)c2)NC(=O)CN(C)C(=O)[C@H](Cc2ccc(F)cc2)N2CCCCC[C@@H](C2=O)N(C)C(=O)CN(C)C1=O [PP0977]	7700 pM	B (a compound having 3 or more and less than 10 is denoted as B)	A (a compound having 10 or more and less than 20 is denoted as A)
CCO[C@@H]1C[C@H]2C(=O)NC3(CCC3)C(=O)N(C)[C@@H](C3CCCC3)C(=O)N(C)[C@H](C(=O)N(C)C)CC(=O)N(C)[C@@H](CC)C(=O)N[C@@H]([C@@H](C)CC)C(=O)N(C)CC(=O)N(C)[C@H]3C/C=C\CCN(C3=O)[C@@H](Cc3ccc(C(F)(F)F)cc3)C(=O)N(C)CC(=O)N[C@@H](CCc3ccc(C(F)(F)F)c(Cl)c3)C(=O)N2C1 [PP0978, (2S,8S,12R,14S,20S,23S,27S,30S,36S,38Z)-8-[2-[3-chloro-4-(trifluoromethyl)phenyl]ethyl]-20-cyclopentyl-12-ethoxy-27-ethyl-N,N,4,19,22,26,32,35-octamethyl-30-[(1S)-1-methylpropyl]-3,6,9,15,18,21,25,28,31,34,42-undecaoxo-2-[[4-(trifluoromethyl)phenyl]methyl]spiro[1,4,7,10,16,19,22,26,29,32,35-undecazatricyclo[34.5.1.0^10,14]dotetracont-38-ene-17,1′-cyclobutane]-23-carboxamide]	88 pM	A (a compound having 10 or more and less than 20 is denoted as A)	B (a compound having 3 or more and less than 10 is denoted as B)
CCO[C@@H]1C[C@H]2C(=O)NC3(CCC3)C(=O)N(C)[C@@H](C3CCCC3)C(=O)N(CC)[C@H](C(=O)N(C)C)CC(=O)N(C)[C@@H](CC)C(=O)N[C@@H]([C@@H](C)CC)C(=O)N(C)CC(=O)N(C)[C@H]3C/C=C\CCN(C3=O)[C@@H](Cc3ccc(C(F)(F)F)cc3)C(=O)N(C)CC(=O)N[C@@H](CCc3cc(F)c(C(F)(F)F)c(F)c3)C(=O)N2C1 [PP0980]	880 pM	A (a compound having 10 or more and less than 20 is denoted as A)	B (a compound having 3 or more and less than 10 is denoted as B)
CCO[C@@H]1C[C@H]2C(=O)NC3(CCC3)C(=O)N(C)[C@@H](C3CCCC3)C(=O)N(CCC3CCCC3)[C@H](C(=O)N3CCOCC3)CC(=O)N(C)[C@@H](CC)C(=O)N[C@@H]([C@@H](C)CC)C(=O)N(C)CC(=O)N(C)[C@H]3C/C=C\CCN(C3=O)[C@@H](Cc3ccc(C(F)(F)F)cc3)C(=O)N(C)CC(=O)N[C@@H](CCc3cc(F)c(C(F)(F)F)c(F)c3)C(=O)N2C1 [PP0981]	11000 pM	AA (a compound having 20 or more is denoted as AA)	A (a compound having 10 or more and less than 20 is denoted as A)
CCO[C@@H]1C[C@H]2C(=O)NC3(CCC3)C(=O)N(C)[C@@H](C3CCCC3)C(=O)N(CCC3CCCC3)[C@H](C(=O)N(C)C)CC(=O)N(C)[C@@H](CC)C(=O)N[C@@H]([C@@H](C)CC)C(=O)N(C)CC(=O)N(C)[C@H]3C/C=C\CCN(C3=O)[C@@H](Cc3ccc(C(F)(F)F)cc3)C(=O)N(C)CC(=O)N[C@@H](CCc3cc(F)c(C(F)(F)F)c(F)c3)C(=O)N2C1 [PP0982]	990 pM	AA (a compound having 20 or more is denoted as AA)	A (a compound having 10 or more and less than 20 is denoted as A)
CCO[C@@H]1C[C@H]2C(=O)NC3(CCC3)C(=O)N(C)[C@@H](C3CCCC3)C(=O)N(C)[C@H](C(=O)N(C)C)CC(=O)N(C)[C@@H](CC)C(=O)N[C@@H]([C@@H](C)CC)C(=O)NCC(=O)N(C)[C@H]3C/C=C\CCN(C3=O)[C@@H](Cc3ccc(C(F)(F)F)cc3)C(=O)N(C)CC(=O)N[C@@H](CCc3cc(F)c(C(F)(F)F)c(F)c3)C(=O)N2C1 [PP0983, (2S,8S,12R,14S,20S,23S,27S,30S,36S,38Z)-20-cyclopentyl-8-[2-[3,5-difluoro-4-(trifluoromethyl)phenyl]ethyl]-12-ethoxy-27-ethyl-N,N,4,19,22,26,35-heptamethyl-30-[(1S)-1-methylpropyl]-3,6,9,15,18,21,25,28,31,34,42-undecaoxo-2-[[4-(trifluoromethyl)phenyl]methyl]spiro[1,4,7,10,16,19,22,26,29,32,35-undecazatricyclo[34.5.1.0^10,14]dotetracont-38-ene-17,1′-cyclobutane]-23-carboxamide]	78 pM	A (a compound having 10 or more and less than 20 is denoted as A)	A (a compound having 10 or more and less than 20 is denoted as A)
CCO[C@@H]1C[C@H]2C(=O)NC3(CCC3)C(=O)N(C)[C@@H](C3CCCC3)C(=O)N(C)[C@H](C(=O)N(C)C)CC(=O)N(C)[C@@H](CC)C(=O)N[C@@H]([C@@H](C)CC)C(=O)N3CC[C@H]3C(=O)N(C)[C@H]3C/C=C\CCN(C3=O)[C@@H](Cc3ccc(C(F)(F)F)cc3)C(=O)N(C)CC(=O)N[C@@H](CCc3cc(F)c(C(F)(F)F)c(F)c3)C(=O)N2C1 [PP0984]	280 pM	A (a compound having 10 or more and less than 20 is denoted as A)	A (a compound having 10 or more and less than 20 is denoted as A)
CCO[C@@H]1C[C@H]2C(=O)NC3(CCC3)C(=O)N(C)[C@@H](C3CCCC3)C(=O)N(C)[C@H](C(=O)N(C)C)CC(=O)N(C)[C@@H](CC)C(=O)N[C@@H]([C@@H](C)CC)C(=O)N(C)CC(=O)N(C)[C@H]3CCCCN(C3=O)[C@@H](Cc3ccc(C(F)(F)F)cc3)C(=O)N(C)CC(=O)N[C@@H](CCc3cc(Cl)c(C(F)(F)F)c(Cl)c3)C(=O)N2C1 [PP0985]	22 pM	C (A compound having a KD ratio of 0.1 or more and less than 3 is denoted as C)	C (A compound having a KD ratio of 0.1 or more and less than 3 is denoted as C)
CCO[C@@H]1C[C@H]2C(=O)NC3(CCC3)C(=O)N(C)[C@@H](C3CCCC3)C(=O)N(C)[C@H](C(=O)N(C)C)CC(=O)N(C)[C@@H](CC)C(=O)N[C@@H]([C@@H](C)CC)C(=O)N(C)CC(=O)N(C)[C@H]3CCCCN(C3=O)[C@@H](Cc3ccc(C(F)(F)F)cc3)C(=O)N(C)CC(=O)N[C@@H](CCc3ccc(OC(F)F)c(F)c3)C(=O)N2C1 [PP0986]	270 pM	C (A compound having a KD ratio of 0.1 or more and less than 3 is denoted as C)	C (A compound having a KD ratio of 0.1 or more and less than 3 is denoted as C)
CCO[C@@H]1C[C@H]2C(=O)NC3(CCC3)C(=O)N(C)[C@@H](C3CCCC3)C(=O)N(C)[C@H](C(=O)N(C)C)CC(=O)N(C)[C@@H](CC)C(=O)N[C@@H]([C@@H](C)CC)C(=O)N(C)CC(=O)N(C)[C@H]3CCCCN(C3=O)[C@@H](Cc3ccc(C(F)(F)F)cc3)C(=O)N(C)CC(=O)N[C@@H](CCc3ccc(Cl)c(Cl)c3)C(=O)N2C1 [PP0987]	24 pM	C (A compound having a KD ratio of 0.1 or more and less than 3 is denoted as C)	C (A compound having a KD ratio of 0.1 or more and less than 3 is denoted as C)
CCO[C@@H]1C[C@H]2C(=O)NC3(CCC3)C(=O)N(C)[C@@H](C3CCCC3)C(=O)N(C)[C@H](C(=O)N(C)C)CC(=O)N(C)[C@@H](CC)C(=O)N[C@@H]([C@@H](C)CC)C(=O)N(C)CC(=O)N(C)[C@H]3CCCCN(C3=O)[C@@H](Cc3ccc(C(F)(F)F)cc3)C(=O)N(C)CC(=O)N[C@@H](CCc3cc(Cl)c(Cl)c(Cl)c3)C(=O)N2C1 [PP0988]	46 pM	C (A compound having a KD ratio of 0.1 or more and less than 3 is denoted as C)	B (a compound having 3 or more and less than 10 is denoted as B)
CCO[C@@H]1C[C@H]2C(=O)NC3(CCC3)C(=O)N(C)[C@@H](C3CCCC3)C(=O)N(C)[C@H](C(=O)N(C)C)CC(=O)N(C)[C@@H](CC)C(=O)N[C@@H]([C@@H](C)CC)C(=O)N(C)CC(=O)N(C)[C@H]3CCCCCN(C3=O)[C@@H](Cc3ccc(C(F)(F)F)cc3)C(=O)N(C)CC(=O)N[C@@H](CCc3cc(Cl)c(C(F)(F)F)c(Cl)c3)C(=O)N2C1 [PP0989]	1300 pM	B (a compound having 3 or more and less than 10 is denoted as B)	B (a compound having 3 or more and less than 10 is denoted as B)
